Measurements reported in patent US12251413B2, “Use of effective part extract of Monochasma savatieri in preparation of drug for treating inflammatory disease or tumor” (Harbin Kanglong Pharmaceutical Co., Ltd., priority 2022, dated 2025).

Tested on: TNF-α
Test: Inhibition of TNF-α secretion by LPS-induced RAW264.7 macrophages (ELISA)
Type: cell-based
Conditions: Mus musculus, RAW264.7, LPS 1 μg/mL, 24 h (Table 1), read-out: TNF-α inhibition rate (%)
Text: This test example simulated the inflammatory response at a cellular level in vitro, that is, the inflammatory response of mouse peritoneal macrophages (RAW264.7) was induced by lipopolysaccharide (LPS) to produce models of the inflammatory factors, and an inhibitory effect of the effective part extract of Monochasma savatieri on the TNF-α secreted by cells was detected by ELISA, to evaluate an anti-inflammatory effect thereof.
Test reagents were: RAW264.7 cells; a DMEM medium, a 1640 medium (Invitrogen), fetal bovine serum (Gibco); LPS(Sigma); an ELISA kit (ebioscience), and a CCK8 reagent (Taosu, Beijing).
Test samples were: the B2-13, B2-15, B2-16, and B2-16-15 prepared in Example 1; a positive drug: dexamethasone.
Test method: • 1. Cell culture: the RAW264.7 cells were cultured in the 1640+10% FBS at 37° C. with 5% CO2, and the cells were passaged when showing logarithmic growth. When reaching 80% confluency, the cells were plated in a 96-well plate (density: 2×10^4 cells/well) at 100 μL/well, and then incubated at 37° C. with 5% CO2 for 12 h to 18 h. • 2. […]
Evaluation index: an inhibition rate of the inflammatory factor TNF-α. OD values were read at 450 nm and 570 nm, a standard curve was plotted, a concentration of TNF-α in the medium was calculated, and the inhibition rate and inhibitory activity IC50 value of the samples on the TNF-α produced by the cells were calculated. […]

C[C@@H]1C[C@H]2[C@@H]3CCC4=CC(=O)C=C[C@]4(C)[C@@]3(F)[C@@H](O)C[C@]2(C)[C@@]1(O)C(=O)CO [Dexamethasone, dexamethasone]
inhibition at 10 µM: 58.7%
